US20130217721A1, “COMPOSITIONS AND METHODS FOR DETECTION AND TREATMENT OF B-RAF INHIBITOR-RESISTANT MELANOMAS” (The Regents of the University of California, priority 2010, published 2013)
“And” between values parts separate entries of the source, which are not always exact repeats. Equal entries are not always repeated. Where two headings read alike, the source gives them in different places.

Tests used:
[1] = system: M249 R sub-line (M249 R4); test: Cell survival / proliferation assay (72 h); type: cell-based, human; conditions: M249 R sub-lines
Protocol: Cells were maintained in Dulbecco's modified Eagle medium (DMEM) with 10 or 20% fetal bovine serum and glutamine. shRNAs were sub-cloned into the lentiviral vector pLL3.7 and infections carried out with protamine sulphate. Stocks of PLX4032 (Plexxikon) and AZD6244 (commercially available) were made in DMSO. Cells were quantified using CellTiter-GLO Luminescence (Promega).
Cell proliferation experiments were performed in a 96-well format (five replicates), and baseline quantification performed at 24 h after cell seeding along with initiation of drug treatments (72 h). Stocks and dilutions of PLX4032 (Plexxikon), AZD6244 (Selleck Chemicals) and U0126 (Promega) were made in DMSO. siRNA pool (Dharmacon) transfections were carried out in 384-well format. TransIT transfection reagent (Mirus) was added to each well and incubated at 37° C. for 20 min. Subsequently, cells were reverse transfected, and the mixture was incubated for 51-61 h at 37° C. Cells were quantified using CellTiter 96 Aqueous One Solution (Promega) or CellTiter-GLO Luminescence (Promega) following the manufacturer's recommendations.
(§1) Cell culture, infections and drug treatments. Cells were maintained in DMEM with 10 or 20% fetal bovine serum and glutamine. shRNAs for B-RAF and C-RAF were sub-cloned into the lentiviral vector pLL3.7; pBabe B-RAF (V600E) was purchase (plasmid 17544, Addgene); viral supernatants generated by co-transfection with three packaging plasm ids into HEK293T cells; and infections carried out with protamine sulfate. Stocks and dilutions of PLX4032 (Plexxikon, Berkeley, Calif.) and AZD6244 (commercially available) were made in DMSO. Cells were quantified using CellTiter-GLO Luminescence (Promega) or crystal violet staining followed by NIH Image J quantification.

[2] = system: MAPK signalling (p-MEK1/2 and p-ERK1/2); conditions: PLX4032 0, 0.01, 0.1, 1 and 10 μM
Protocol: FIG. 1A, Parental and PLX4032-resistant sub-lines were treated with increasing PLX4032 concentration (0, 0.01, 0.1, 1 and 10 μM), and the effects on MAPK signalling were determined by immunoblotting for p-MEK1/2 and p-ERK1/2 levels. Total MEK1/2, ERK1/2 and tubulin levels, loading controls.
Western blots were probed with antibodies against p-MEK1/2 (S217/221), MEK1/2, p-ERK1/2 (T202N204), ERK1/2, PDGFRβ, and EGFR (Cell Signaling Technologies), and N-RAS (Santa Cruz Biotechnology), pan-RAS (Thermo Scientific) and tubulin (Sigma). p-RTK arrays were performed according to the manufacturer's recommendations (Human Phospho-RTK Array Kit, R&D Systems).
Cell lysates for western blotting were made in RIPA (Sigma) with protease inhibitor cocktail (Roche) and phosphatase inhibitor cocktails I and II (Santa Cruz Biotechnology). Western blots were probed with antibodies against p-MEK1/2 (S217/221), total MEK1/2, p-ERK1/2 (T202/Y204), total ERK1/2, PDGFRβ, and EGFR (all from Cell Signaling Technologies), B-RAF and N-RAS (Santa Cruz Biotechnology), pan-RAS (Thermo Scientific) and tubulin (Sigma). p-RTK arrays were performed according to the manufacturer's recommendations (Human Phospho-RTK Array Kit, R&D Systems).

[3] = system: V600EB-RAF-positive melanomas; conditions: patients with V600EB-RAF-positive melanomas; cited from earlier work
SKMEL-239 = test: Cell cycle and apoptosis analysis; type: cell-based, human; conditions: SKMEL-239 parental, 2 μM PLX4032
Protocol: Cell proliferation and cell cycle analysis. All melanoma cell lines were generated by A. Houghton (MSKCC) or obtained from ATCC. 293H cells were obtained from Invitrogen. Cells were maintained in DMEM (293H and MEFs), or RPMI (all other cell lines) supplemented with 2 mM glutamine, antibiotics and 10% fetal bovine serum. We confirmed by DNA fingerprinting^20 that all PLX4032-resistant, SKMEL-239 clones were derived from the same patient, thus excluding the possibility of contamination (Table 6). For proliferation assays, cells were plated in 6 well plates and 24 hours later were treated with varying concentrations of inhibitors as indicated. IC50 values were calculated using Graph Pad Prism v.5. For cell cycle and apoptosis studies, cells were seeded in 6 well dishes the day prior to drug treatment. For analysis, both adherent and floating cells were harvested and stained with ethidium bromide as described previously^21.

M395 R = test: Cell survival assay (72 h); type: cell-based, human
Source text: as §1

melanoma tumors = test: Melanoma patients treated with vemurafenib (PLX4032): best response and PFS (Table 5); type: in vivo, human; conditions: individual patient; patients 1-19 acquired resistance, 20-21 primary resistant
[4] = system: M229, M238 and M249 parental cell lines; conditions: B-RAF(V600E)-positive parental cell lines, in vitro and in vivo; cited from earlier work
[5] = system: M395 P over-expressing V600EB-RAF; test: Cell survival assay (72 h) with V600EB-RAF over-expression; type: cell-based, human
Protocol: FIGS. 9A-9C. ^V600EB-RAF levels modulate melanoma sensitivity to vemurafenib. […] Dashed line, 50% inhibition. […] FIG. 9C, Increasing (in M395 P) or decreasing (in M395 R) BRAF^V600E levels decreased or increased pERK sensitivity to PLX4032 (0, 0.1, 1, 10 μM) treatments for 1 h, respectively.
as §1

CCCS(=O)(=O)Nc1ccc(F)c(C(=O)c2c[nH]c3ncc(-c4ccc(Cl)cc4)cc23)c1F [PLX4032]
GI50 ([1]; Homo sapiens, not reached up to 10 μM, read-out: GI50, concentration of drug that inhibits growth of cells by 50%): > 10 µM
growth at low PLX4032 concentrations ([1]; in contrast to parental cells): paradoxically enhanced growth
PLX4032-induced decreases in p-MEK1/2 and p-ERK1/2 ([2]; M229 R5): similarly sensitive
PLX4032-induced decreases in p-MEK1/2 and p-ERK1/2 ([2]; M238 R1): similarly sensitive
PLX4032-induced MEK/ERK inhibition ([2]; M249 R4): strong resistance
p-MEK1/2 and p-ERK1/2 levels ([2]; all parental cells (M229, M238, M249)): dose-dependent decreases
anti-tumor response rate [3]: 80%
cell cycle effect (SKMEL-239): accumulation of cells in G1
cell death (SKMEL-239): significant induction of cell death
growth sensitivity to vemurafenib treatment (M395 R; M395 R (amplified V600EB-RAF)): highly resistant
drug sensitivity at high vemurafenib dosing (M395 R; vemurafenib from 1 to 50 µM, 72 h, versus M249 R4): highly sensitive
Best Response (melanoma tumors): −72% (2×) and −20% and −70% (2×) and −22% and −53% (2×) and −31% (2×) and −60% and −47% and −43% and −25% and −74% and −24% and −37% and −100% and −42% and +8%
PFS (melanoma tumors): 464 days and 304 days and 104 days and 161 days and 137 days and 238 days and 212 days and 373 days and 148 days and 299 days and 107 days and 149 days and 126 days and 279 days and 118 days and 241 days and 168 days (2×) and 79 days and 50 days and 106 days
sensitivity to PLX4032-mediated growth inhibition [4]: exquisitely sensitive
vemurafenib resistance conferred by V600EB-RAF over-expression [5]: highly saturable by micromolar concentrations
